Patent US6620828B2, “Thiazole compounds and pharmaceutical compositions for inhibiting protein kinases and methods for their use” (Agouron Pharmaceuticals, Inc., priority 1999, dated 2003)
Read-outs that look alike come from different tables or passages of the source.

Tested on: human umbilical vein endothelial cells (HUVEC)
Test: HUVEC proliferation assay
Assay type: cell-based
Conditions: Homo sapiens, HUVEC, Inhibition of HUVEC Proliferation, 50 nM, crude combinatorial urea library
Protocol: HUVEC Proliferation Assay
This assay determines the ability of a test compound to inhibit the growth factor-stimulated proliferation of human umbilical vein endothelial cells (“HUVEC”). HUVEC cells (passage 3-4, Clonetics, Corp.) were thawed into EGM2 culture medium (Clonetics Corp) in T75 flasks. Fresh EGM2 medium was added to the flasks 24 hours later. Four or five days later, cells were exposed to another culture medium (F12K medium supplemented with 10% fetal bovine serum (FBS), 60 μg/ml endothelial cell growth supplement (ECGS), and 0.1 mg/ml heparin). Exponentially-growing HUVEC cells were used in experiments thereafter. Ten to twelve thousand HUVEC cells were plated in 96-well dishes in 100 μl of rich, culture medium (described above). The cells were allowed to attach for 24 hours in this medium. The medium was then removed by aspiration and 105 μl of starvation media (F12K+1% FBS) was added to each well. After 24 hours, 15 μl of test agent dissolved in 1% DMSO in starvation medium or this vehicle alone was added into each treatment well; the final DMSO concentration was 0.1%. One hour later, 30 μl of VEGF (30 ng/ml) in starvation media was added to all wells except those containing untreated controls; the final VEGF concentration was 6 ng/ml. Cellular proliferation was quantified 72 hours later by MTT dye reduction, at which time cells were exposed for 4 hours MTT (Promega Corp.). Dye reduction was stopped by addition of a stop solution (Promega Corp.) and absorbance at 595 λ was determined on a 96-well spectrophotometer plate reader.
IC50 values were calculated by curve-fitting the response of A^595 to various concentrations of the test agent; typically, seven concentrations separated by 0.5 log were employed, with triplicate wells at each concentration. For screening compound library plates, one or two concentrations (one well per concentration) were employed, and the % inhibition was calculated by the following formula:
% inhibition=(control−test) divided by (control−starvation) […]
control=A^595 when VEGF is present without test agent test=A^595 when VEGF is present with test agent starvation=A^595 when VEGF and test agent are both absent.

Row | SMILES | inhibition at 0.05 µM (read-out: % inhibition @ 50 nM) [%] | inhibition at 0.05 µM (read-out: Inhibition @ 50 nM) [%]
1 | COc1cccc(C(=O)Nc2cc(-c3csc(-c4sc(NC(=O)NCCNc5ccccc5)nc4N)n3)c(F)cc2F)c1 | 60 | 
2 | COc1cccc(C(=O)Nc2cc(-c3csc(-c4sc(NC(=O)NCC(C)O)nc4N)n3)c(F)cc2F)c1 (stereo not drawn) | 111 | 
3 | COc1cccc(C(=O)Nc2cc(-c3csc(-c4sc(NC(=O)NCC5CCC=CO5)nc4N)n3)c(F)cc2F)c1 (stereo not drawn) | 42 | 
4 | COc1cccc(C(=O)Nc2cc(-c3csc(-c4sc(NC(=O)NCCc5ccc(N)cc5)nc4N)n3)c(F)cc2F)c1 | 65 | 
5 | COc1cccc(C(=O)Nc2cc(-c3csc(-c4sc(NC(=O)NCCCN5CCOCC5)nc4N)n3)c(F)cc2F)c1 | 81 | 
6 | COc1cccc(C(=O)Nc2cc(-c3csc(-c4sc(NC(=O)NCCC(C)C)nc4N)n3)c(F)cc2F)c1 | 55 | 
7 | COc1cccc(C(=O)Nc2cc(-c3csc(-c4sc(NC(=O)NCC5CCCO5)nc4N)n3)c(F)cc2F)c1 (stereo not drawn) | 92 | 
8 | COc1cccc(C(=O)Nc2cc(-c3csc(-c4sc(NC(=O)NCCC5CCCN5C)nc4N)n3)c(F)cc2F)c1 (stereo not drawn) | 27 | 
9 | COc1cccc(C(=O)Nc2cc(-c3csc(-c4sc(NC(=O)NCCN5CCCCC5)nc4N)n3)c(F)cc2F)c1 | 74 | 
10 | COc1cccc(C(=O)Nc2cc(-c3csc(-c4sc(NC(=O)NCCCN5CCCCC5C)nc4N)n3)c(F)cc2F)c1 (stereo not drawn) | 86 | 
11 | COc1cccc(C(=O)Nc2cc(-c3csc(-c4sc(NC(=O)NC5CCN(Cc6ccccc6)CC5)nc4N)n3)c(F)cc2F)c1 | 66 | 
12 | COc1cccc(C(=O)Nc2cc(-c3csc(-c4sc(NC(=O)NCC(C)(C)CN(C)C)nc4N)n3)c(F)cc2F)c1 | 75 | 
13 | COc1cccc(C(=O)Nc2cc(-c3csc(-c4sc(NC(=O)N[C@H]5CC[C@H](O)CC5)nc4N)n3)c(F)cc2F)c1 | 81 | 
14 | COc1cccc(C(=O)Nc2cc(-c3csc(-c4sc(NC(=O)NCCC(=O)O)nc4N)n3)c(F)cc2F)c1 | 66 | 
15 | COCCNC(=O)Nc1nc(N)c(-c2nc(-c3cc(NC(=O)c4cccc(OC)c4)c(F)cc3F)cs2)s1 | 21 | 
16 | COc1cccc(C(=O)Nc2cc(-c3csc(-c4sc(NC(=O)NCC(F)(F)F)nc4N)n3)c(F)cc2F)c1 | 2 | 
17 | COc1cccc(C(=O)Nc2cc(-c3csc(-c4sc(NC(=O)NCCCn5ccnc5)nc4N)n3)c(F)cc2F)c1 | 6 | 
18 | COc1cccc(C(=O)Nc2cc(-c3csc(-c4sc(NC(=O)NCCc5ccc(S(N)(=O)=O)cc5)nc4N)n3)c(F)cc2F)c1 | 25 | 
19 | CCCCN(CC)CCNC(=O)Nc1nc(N)c(-c2nc(-c3cc(NC(=O)c4cccc(OC)c4)c(F)cc3F)cs2)s1 | 24 | 
20 | COc1cccc(C(=O)Nc2cc(-c3csc(-c4sc(NC(=O)NCc5ccc(N(C)C)cc5)nc4N)n3)c(F)cc2F)c1 | 39 | 
21 | COc1cccc(C(=O)Nc2cc(-c3csc(-c4sc(NC(=O)NCP(=O)(O)O)nc4N)n3)c(F)cc2F)c1 | 48 | 

Row | SMILES | inhibition at 0.05 µM (read-out: % inhibition @ 50 nM) [%] | inhibition at 0.05 µM (read-out: Inhibition @ 50 nM) [%]
22 | COc1cccc(C(=O)Nc2cc(-c3csc(-c4sc(NC(=O)NC(CO)CO)nc4N)n3)c(F)cc2F)c1 | 76 | 
23 | COc1cccc(C(=O)Nc2cc(-c3csc(-c4sc(NC(=O)NCc5ccc(N)cc5)nc4N)n3)c(F)cc2F)c1 | 83 | 
24 | COc1cccc(C(=O)Nc2cc(-c3csc(-c4sc(NC(=O)N[C@@H](CO)C(N)=O)nc4N)n3)c(F)cc2F)c1 | 69 | 
25 | CNC(=O)Nc1nc(N)c(-c2nc(-c3cc(NC(=O)c4cccc(OC)c4)c(F)cc3F)cs2)s1 | 99 | 
26 | COc1cccc(C(=O)Nc2cc(-c3csc(-c4sc(NC(=O)NCCNC(C)=O)nc4N)n3)c(F)cc2F)c1 | 105 | 
27 | COc1cccc(C(=O)Nc2cc(-c3csc(-c4sc(NC(=O)N[C@H](CO)Cc5c[nH]cn5)nc4N)n3)c(F)cc2F)c1 | 47 | 
28 | CCC(CO)NC(=O)Nc1nc(N)c(-c2nc(-c3cc(NC(=O)c4cccc(OC)c4)c(F)cc3F)cs2)s1 (stereo not drawn) | 108 | 
29 | COc1cccc(C(=O)Nc2cc(-c3csc(-c4sc(NC(=O)NCCCC(=O)O)nc4N)n3)c(F)cc2F)c1 | 40 | 
30 | COc1cccc(C(=O)Nc2cc(-c3csc(-c4sc(NC(=O)NCCN5CCNCC5)nc4N)n3)c(F)cc2F)c1 | 46 | 
31 | COc1cccc(C(=O)Nc2cc(-c3csc(-c4sc(NC(=O)NCCc5ccccn5)nc4N)n3)c(F)cc2F)c1 | 105 | 
32 | COc1cccc(C(=O)Nc2cc(-c3csc(-c4sc(NC(=O)NCc5cccnc5)nc4N)n3)c(F)cc2F)c1 | 102 | 
33 | COc1cccc(C(=O)Nc2cc(-c3csc(-c4sc(NC(=O)NCc5ccncc5)nc4N)n3)c(F)cc2F)c1 | 95 | 
34 | COc1cccc(C(=O)Nc2cc(-c3csc(-c4sc(NC(=O)NCC(O)CO)nc4N)n3)c(F)cc2F)c1 (stereo not drawn) | 74 | 
35 | COc1cccc(C(=O)Nc2cc(-c3csc(-c4sc(NC(=O)NC(C)CO)nc4N)n3)c(F)cc2F)c1 (stereo not drawn) | 98 | 
36 | COc1cccc(C(=O)Nc2cc(-c3csc(-c4sc(NC(=O)NCCCN(C)C)nc4N)n3)c(F)cc2F)c1 | 72 | 
37 | COc1cccc(C(=O)Nc2cc(-c3csc(-c4sc(NC(=O)NCCN(C)C)nc4N)n3)c(F)cc2F)c1 | 63 | 
38 | COc1cccc(C(=O)Nc2cc(-c3csc(-c4sc(NC(=O)NCC(C)(C)N)nc4N)n3)c(F)cc2F)c1 | 73 | 
39 | CCCCN(CCCC)CCCNC(=O)Nc1nc(N)c(-c2nc(-c3cc(NC(=O)c4cccc(OC)c4)c(F)cc3F)cs2)s1 | 81 | 
40 | COc1cccc(C(=O)Nc2cc(-c3csc(-c4sc(NC(=O)NCCCN5CCCCC5)nc4N)n3)c(F)cc2F)c1 | 89 | 
41 | COc1cccc(C(=O)Nc2cc(-c3csc(-c4sc(NC(=O)NC5CCS(=O)(=O)C5)nc4N)n3)c(F)cc2F)c1 (stereo not drawn) | 100 | 
42 | COc1cccc(C(=O)Nc2cc(-c3csc(-c4sc(NC(=O)NCCC(=O)NCC(=O)O)nc4N)n3)c(F)cc2F)c1 | 57 | 

Row | SMILES | inhibition at 0.05 µM (read-out: % inhibition @ 50 nM) [%] | inhibition at 0.05 µM (read-out: Inhibition @ 50 nM) [%]
43 | COc1cccc(C(=O)Nc2cc(-c3csc(-c4sc(NC(=O)NCC#N)nc4N)n3)c(F)cc2F)c1 | 71 | 
44 | COc1cccc(C(=O)Nc2cc(-c3csc(-c4sc(NC(=O)NCC(=O)NO)nc4N)n3)c(F)cc2F)c1 | 19 | 
45 | COc1cccc(C(=O)Nc2cc(-c3csc(-c4sc(NC(=O)NCC(=O)O)nc4N)n3)c(F)cc2F)c1 | 23 | 
46 | COc1cccc(C(=O)Nc2cc(-c3csc(-c4sc(NC(=O)NCCS(=O)(=O)O)nc4N)n3)c(F)cc2F)c1 | 27 | 
47 | CCC(O)CNC(=O)Nc1nc(N)c(-c2nc(-c3cc(NC(=O)c4cccc(OC)c4)c(F)cc3F)cs2)s1 (stereo not drawn) | 104 | 
48 | COc1cccc(C(=O)Nc2cc(-c3csc(-c4sc(NC(=O)NCC(C)(C)CO)nc4N)n3)c(F)cc2F)c1 | 120 | 
49 | CCN1CC(NC(=O)Nc2nc(N)c(-c3nc(-c4cc(NC(=O)c5cccc(OC)c5)c(F)cc4F)cs3)s2)CN1CC | 82 | 
50 | CCN(CCNC(=O)Nc1nc(N)c(-c2nc(-c3cc(NC(=O)c4cccc(OC)c4)c(F)cc3F)cs2)s1)c1cccc(C)c1 | 18 | 
51 | COc1cccc(C(=O)Nc2cc(-c3csc(-c4sc(NC(=O)NCC(=N)N)nc4N)n3)c(F)cc2F)c1 | 17 | 
52 | COc1cccc(C(=O)Nc2cc(-c3csc(-c4sc(NC(=O)NCC(C)(C)C)nc4N)n3)c(F)cc2F)c1 | 43 | 
53 | COc1cccc(C(=O)Nc2cc(-c3csc(-c4sc(NC(=O)NCC5(O)CCCCC5)nc4N)n3)c(F)cc2F)c1 | 72 | 
54 | COc1cccc(C(=O)Nc2cc(-c3csc(-c4sc(NC(=O)NCCc5c[nH]cn5)nc4N)n3)c(F)cc2F)c1 | 55 | 
55 | COc1cccc(C(=O)Nc2cc(-c3csc(-c4sc(NC(=O)NCS(=O)(=O)O)nc4N)n3)c(F)cc2F)c1 | 0 | 
56 | COc1cccc(C(=O)Nc2cc(-c3csc(-c4sc(NC(=O)NCCCN(C)c5ccccc5)nc4N)n3)c(F)cc2F)c1 | 45 | 
57 | COc1cccc(C(=O)Nc2cc(-c3csc(-c4sc(NC(=O)NCc5ccc(S(N)(=O)=O)cc5)nc4N)n3)c(F)cc2F)c1 | 77 | 
58 | COc1cccc(C(=O)Nc2cc(-c3csc(-c4sc(NC(=O)NCCCN(CCO)CCO)nc4N)n3)c(F)cc2F)c1 | 51 | 
59 | CCN(CC)CCNC(=O)Nc1nc(N)c(-c2nc(-c3cc(NC(=O)c4cccc(OC)c4)c(F)cc3F)no2)s1 |  | 82
60 | CCN(CC)CCCNC(=O)Nc1nc(N)c(-c2nc(-c3cc(NC(=O)c4cccc(OC)c4)c(F)cc3F)no2)s1 |  | 85
61 | COc1cccc(C(=O)Nc2cc(-c3noc(-c4sc(NC(=O)NCCc5cccnc5)nc4N)n3)c(F)cc2F)c1 |  | 38
62 | COc1cccc(C(=O)Nc2cc(-c3noc(-c4sc(NC(=O)N[C@@H](CC(N)=O)C(N)=O)nc4N)n3)c(F)cc2F)c1 |  | 86
63 | CNC(=O)CNC(=O)Nc1nc(N)c(-c2nc(-c3cc(NC(=O)c4cccc(OC)c4)c(F)cc3F)no2)s1 |  | 51
